According to patent US9642367B2, “Microbicidal composition” (Dow Global Technologies LLC, priority 2013, dated 2017):

Assays:
Assay type in all cases: cell-based
[1] = test system: Escherichia coli (E. coli, ATCC #8739); assay: MIC / synergy evaluation in 96 well microtiter plate, bacteria in Tryptic Soy Broth; conditions: visual turbidity; for MIC: Escherichia coli, ATCC8739, single active acting alone, read-out: Minimum Inhibitory Concentration
Source text: (§1) One measure of synergism is the industrially accepted method described by Kull, F. C.; Eisman, P. C.; Sylwestrowicz, H. D. and Mayer, R. L., in Applied Microbiology 9:538-541 (1961), using the ratio determined by the formula: Qa/QA+Qb/QB=Synergy Index (“SI”) wherein:
(§2) QA=concentration of compound A (first component) in ppm, acting alone, which produced an end point (MIC of Compound A).
(§3) Qa=concentration of compound A in ppm, in the mixture, which produced an end point.
(§4) QB=concentration of compound B (second component) in ppm, acting alone, which produced an end point (MIC of Compound B).
(§5) Qb=concentration of compound B in ppm, in the mixture, which produced an end point.
(§6) When the sum of Qa/QA and Qb/QB is greater than one, antagonism is indicated. […] The lower the SI, the greater the synergy shown by that particular mixture. The minimum inhibitory concentration (MIC) of a microbicide is the lowest concentration tested under a specific set of conditions that prevents the growth of added microorganisms. The microorganisms tested were Escherichia coli(E. coli, ATCC #8739), a yeast, Candida albicans (C. albicans, ATCC #10231) and mold, Aspergillus niger (A. niger, ATCC #16404).
(§7) MBIT synergy with a secondary biocide was determined by evaluating the minimum biocide or biocide blend concentration required to inhibit microbial growth. All studies were conducted using a 96 well microtiter plate format. For all studies, 200 μl of microbial growth media, containing various concentrations of MBIT alone, the secondary biocide alone, or combinations of both biocide chemistries, was added to individual wells of a microtiter plate. Specifically, Tryptic Soy Broth (TSB) was utilized for bacteria (E. coli, ATCC #8739), Yeast Malt Extract Broth (YMB) for yeast (Candida albicans, ATCC #10231) and Potato Dextrose Broth (PDB) for mold (Aspergillus niger, ATCC #16404). Test organisms, at a final concentration of 10^4 CFU/mL or 10^4 spores/mL, were applied to each well in parallel experiments to initiate the MIC evaluations. Growth medium containing no biocide was utilized as a control in each experimental setup to confirm the growth viability of each organism. Eight concentrations (2-fold dilutions) of each individual biocide were evaluated in the microbial growth inhibition studies in addition to the 64 possible combinations of these biocide concentrations. Evaluation of the individual biocide concentrations is required to achieve an inhibitory concentration end point for synergy index calculation. […] Individual wells were scored as growth or no growth based on visual organism growth turbidity.
(§8) These microorganisms are representative of natural contaminants in many consumer and industrial applications. […] (yeast and mold) or 30° C. (bacteria).

[2] = test system: Candida albicans (C. albicans, ATCC #10231); assay: MIC / synergy evaluation in 96 well microtiter plate, yeast in Yeast Malt Extract Broth; conditions: visual turbidity; for MIC: Candida albicans, ATCC10231, single active acting alone, read-out: Minimum Inhibitory Concentration
Source text: as §1, §2, §3, §4, §5, §6, §7, §8

[3] = test system: Aspergillus niger (A. niger, ATCC #16404); assay: MIC / synergy evaluation in 96 well microtiter plate, mold in Potato Dextrose Broth; conditions: ATCC16404, single active acting alone, visual turbidity, read-out: Minimum Inhibitory Concentration
Source text: as §1, §2, §3, §4, §5
When the sum of Qa/QA and Qb/QB is greater than one, antagonism is indicated. […] The lower the SI, the greater the synergy shown by that particular mixture. […]
MBIT synergy with a secondary biocide was determined by evaluating the minimum biocide or biocide blend concentration required to inhibit microbial growth. […] Eight concentrations (2-fold dilutions) of each individual biocide were evaluated in the microbial growth inhibition studies in addition to the 64 possible combinations of these biocide concentrations. […] Individual wells were scored as growth or no growth based on visual organism growth turbidity. […]

CC(O)C(=O)O (stereo not shown) [Lactic acid, lactic acid]
MIC [1]: 5000 µg/mL
MIC [2]: 750 µg/mL
MIC [3]: 40000 µg/mL

C=CCCCCCCCCC(=O)O [Undecylenic acid, undecylenic acid]
MIC [1]: 10000 µg/mL
MIC [2]: 7.82 µg/mL
MIC [3]: 38 µg/mL

Cn1sc2ccccc2c1=O [MBIT, N-methyl-1,2-benzisothiazolin-3-one]
Minimum Inhibitory Concentration ([1]; single active acting alone): 12.50 ppm
Minimum Inhibitory Concentration ([2]; single active acting alone): 1.50 ppm

O=C(O)CCCCCCCC(=O)O [Azelaic acid, azelaic acid]
MIC [1]: 2500 µg/mL
MIC [2]: 188 µg/mL
